Patent publication US12290519B2, “Anti-inflammatory coupling compound drug, and preparation method therefor and use thereof” (COVAL BIOPHARMA (SHANGHAI) CO., LTD., priority 2021, dated 2025)

Test: Hydrolysis rate / drug release rate of the compounds (release of JAK inhibitor, HPLC)
Assay type: physicochemical
Conditions: % release of JAK inhibitor from sample in acetonitrile/water=7/3 (v/v), 37° C. constant temperature shaker, sampled days 1-4, HPLC
Experimental: Analysis Method for Hydrolysis Rate of Compounds of the Present Invention
1. Preparation of Standard Working Curve Solution
(§1) About 10 mg of JAK inhibitors (tofacitinib and baricitinib) reference substances were weighed into a 25 mL volumetric flask, acetonitrile/water=7/3 (v/v) was added to dissolve and dilute to the marked volume, serving as a stock solution. The stock solution was diluted with a suitable dilution factor to obtain linear solutions of each concentration: 0.0002 mg/mL, 0.0004 mg/mL, 0.004 mg/mL, 0.04 mg/mL, and 0.08 mg/mL.
as §1, with “(Oclacitinib, Ruxolitinib, Delgocitinib,” for “(tofacitinib”, “Upadacitinib)” for “baricitinib)”
2. Preparation of Sample Solution
About 5 mg of the sample (the compound prepared in the present invention) was weighed into a 20 mL volumetric flask, acetonitrile/water=7/3 (v/v) was added to dissolve and dilute to the marked volume, serving as a stock solution. An appropriate amount of HPLC was loaded as the 0-day sample. The test solution was sealed with a sealing film and placed in a 37° C. constant temperature shaker. The test samples were taken at the same time on days 1, 2, 3, and 4 respectively. the release amount of JAK inhibitor in the sample was calculated according to the sample weight and JAK inhibitor standard curve.
3. Calculation Formula % Release of JAK Inhibitor r=100%×((AJAK Inhibitor−b)/a)/((W/20×M2/M1) wherein • AJAK inhibitor is the peak area of JAK inhibitor in the sample chromatogram • b is the intercept of the standard curve M1 is the molecular weight of the sample a is the slope of the standard curve
W is the sample weight (mg) M2 is the molecular weight of the JAK inhibitor
4. Chromatographic Conditions

Release Rate (%/day) | Structure (SMILES)
0.05 %/day | CC(C(=O)OCn1ccc2c(N(C)[C@H]3CN(C(=O)CC#N)CC[C@H]3C)ncnc21)c1ccc(-c2ccccc2)c(F)c1 (stereo partly drawn) [Ex. 50, (4-(((3R, 4R)-1-(2-cyanoacetyl)-4-methylpiperidin-3-yl) (methyl)amino)-7H-pyrrolo [2,3-d]pyrimidin-7-yl) methyl 2-(2-fluoro-[1, 1′-biphenyl]-4-yl) propanoate]
0.35 %/day | C[C@@H]1CCN(C(=O)CC#N)C[C@@H]1N(C)c1ncnc2c1ccn2COC(=O)Cc1ccccc1Nc1c(Cl)cccc1Cl [Ex. 51, (4-(((3R, 4R)-1-(2-cyanoacetyl)-4-methylpiperidin-3-yl) (methyl)amino)-7H-pyrrolo [2,3-d]pyrimidin-7-yl) methyl 2-(2-((2,6-dichlorophenyl)amino)phenyl) acetate]
0.1 %/day | CC(C(=O)OCn1ccc2c(N(C)[C@H]3CN(C(=O)CC#N)CC[C@H]3C)ncnc21)c1cccc(Oc2ccccc2)c1 (stereo partly drawn) [Ex. 52, (4-(((3R, 4R)-1-(2-cyanoacetyl)-4-methylpiperidin-3-yl) (methyl)amino)-7H-pyrrolo [2,3-d]pyrimidin-7-yl) methyl 2-(3-phenoxyphenyl) propanoate]
0.16 %/day | COc1ccc2c(c1)c(CC(=O)OCn1ccc3c(N(C)[C@H]4CN(C(=O)CC#N)CC[C@H]4C)ncnc31)c(C)n2C(=O)c1ccc(Cl)cc1 [Ex. 55, (4-(((3R, 4R)-1-(2-cyanoacetyl)-4-methylpiperidin-3-yl) (methyl)amino)-7H-pyrrolo [2,3-d]pyrimidin-7-yl) methyl 2-(1-(4-chlorobenzoyl)-5-methoxy-2-methyl-1H-indol-3-yl) acetate]
<0.01 %/day | CCS(=O)(=O)N1CC(CC#N)(n2cc(-c3ncnc4c3ccn4COC(=O)[C@@H](C)c3ccc(CC(C)C)cc3)cn2)C1 [Ex. 60, Methyl (4-(1-(3-(cyanomethyl)-1-(ethylsulfonyl)azetidin-3-yl)-1H-pyrazol-4-yl)-7H-pyrrolo [2,3-d]pyrimidin-7-yl) (S)-2-(4-isobutylphenyl) propanoate]
0.02 %/day | CCc1cccc2c3c([nH]c12)C(CC)(CC(=O)OCn1ccc2c(N(C)[C@H]4CN(C(=O)CC#N)CC[C@H]4C)ncnc21)OCC3 (stereo partly drawn) [Ex. 63, (4-(((3R, 4R)-1-(2-cyanoacetyl)-4-methylpiperidin-3-yl) (methyl)amino)-7H-pyrrolo [2,3-d]pyrimidin-7-yl) methyl 2-(1,8-diethyl-1,3,4,9-tetrahydropyrano [3,4-b]indol-1-yl) acetate]
0.03 %/day | CCS(=O)(=O)N1CC(CC#N)(n2cc(-c3ncnc4c3ccn4COC(=O)C(C)c3ccc(-c4ccccc4)c(F)c3)cn2)C1 (stereo not shown) [Ex. 69, Methyl (4-(1-(3-(cyanomethyl)-1-(ethylsulfonyl)azetidin-3-yl)-1H-pyrazol-4-yl)-7H-pyrrolo [2,3-d]pyrimidin-7-yl) 2-(2-fluoro-[1, 1′-biphenyl]-4-yl) propanoate]
0.01 %/day | CCS(=O)(=O)N1CC(CC#N)(n2cc(-c3ncnc4c3ccn4COC(=O)C(C)c3cccc(Oc4ccccc4)c3)cn2)C1 (stereo not shown) [Ex. 71, Methyl (4-(1-(3-(cyanomethyl)-1-(ethylsulfonyl)azetidin-3-yl)-1H-pyrazol-4-yl)-7H-pyrrolo [2,3-d]pyrimidin-7-yl) 2-(3-phenoxyphenyl) propanoate]

More lines, now with the values behind:

Structure (SMILES) | Release Rate (%/day)
CC(C(=O)OCn1ccc2c(N(C)[C@H]3CN(C(=O)CC#N)CC[C@H]3C)ncnc21)c1ccc(CC2CCCC2=O)cc1 (stereo partly drawn) [Ex. 53, (4-(((3R, 4R)-1-(2-cyanoacetyl)-4-methylpiperidin-3-yl) (methyl)amino)-7H-pyrrolo [2,3-d]pyrimidin-7-yl) methyl 2-(4-((2-oxocyclopentyl)methyl)phenyl) propanoate] | 0.06 %/day
CC(C(=O)n1ccc2c(-c3cnn([C@H](CC#N)C4CCCC4)c3)ncnc21)c1cccc(Oc2ccccc2)c1 (stereo partly drawn) [Ex. 54, (3R)-3-cyclopentyl-3-(4-(7-(2-(3-phenoxyphenyl)propanoyl)-7H-pyrrolo [2,3-d]pyrimidin-4-yl)-1H-pyrazol-1-yl) propanenitrile] | 4.93 %/day
CC(=O)Oc1ccccc1C(=O)OCn1ccc2c(N(C)[C@H]3CN(C(=O)CC#N)CC[C@H]3C)ncnc21 [Ex. 56, (4-(((3R, 4R)-1-(2-cyanoacetyl)-4-methylpiperidin-3-yl) (methyl)amino)-7H-pyrrolo [2,3-d]pyrimidin-7-yl) methyl 2-acetoxybenzoate] | 0.07 %/day
Cc1c(Cl)cccc1Nc1ccccc1C(=O)n1ccc2c(-c3cnn([C@H](CC#N)C4CCCC4)c3)ncnc21 [Ex. 57, (R)-3-(4-(7-(2-((3-chloro-2-methylphenyl)amino)benzoyl)-7H-pyrrolo [2,3-d]pyrimidin-4-yl)-1H-pyrazol-1-yl)-3-cyclopentylpropanenitrile] | 0.57 %/day
CNS(=O)(=O)C[C@H]1CC[C@H](N(C)c2ncnc3c2ccn3C(=O)Cc2ccc(NC(C)=O)cc2)CC1 [Ex. 58, N-(4-(2-(4-(methyl ((trans)-4-((N-methylsulfamoyl)methyl)cyclohexyl)amino)-7H-pyrrolo [2,3-d]pyrimidin-7-yl)-2-oxoethyl)phenyl) acetamide] | 12.46 %/day
CC(=O)Nc1ccc(CC(=O)OCn2ccc3c(N(C)[C@H]4CN(C(=O)CC#N)CC[C@H]4C)ncnc32)cc1 [Ex. 59, (4-(((3R, 4R)-1-(2-cyanoacetyl)-4-methylpiperidin-3-yl) (methyl)amino)-7H-pyrrolo [2,3-d]pyrimidin-7-yl) methyl 2-(4-acetamidophenyl) acetate] | 0.15 %/day
CCS(=O)(=O)N1CC(CC#N)(n2cc(-c3ncnc4c3ccn4COC(=O)[C@@H](C)c3ccc4cc(OC)ccc4c3)cn2)C1 [Ex. 61, Methyl (4-(1-(3-(cyanomethyl)-1-(ethylsulfonyl)azetidin-3-yl)-1H-pyrazol-4-yl)-7H-pyrrolo [2,3-d]pyrimidin-7-yl) (S)-2-(6-methoxynaphthalen-2-yl) propanoate] | <0.01 %/day
CCS(=O)(=O)N1CC(CC#N)(n2cc(-c3ncnc4c3ccn4COC(=O)C(C)c3cccc(C(=O)c4ccccc4)c3)cn2)C1 (stereo not shown) [Ex. 62, 4-(1-(3-(cyanomethyl)-1-(ethylsulfonyl)azetidin-3-yl)-1H-pyrazol-4-yl)-7H-pyrrolo [2,3-d] pyrimidin-7-yl) methyl 2-(3-benzoylphenyl) propanoate] | 0.01 %/day
C[C@@H]1CCN(C(=O)CC#N)C[C@@H]1N(C)c1ncnc2c1ccn2COC(=O)[C@@H](NC(=O)OC(C)(C)C)c1ccccc1 [Ex. 64, (4-(((3R, 4R)-1-(2-cyanoacetyl)-4-methylpiperidin-3-yl) (methyl)amino)-7H-pyrrolo [2,3-d]pyrimidin-7-yl) methyl (S)-2-((tert-butoxycarbonyl)amino)-2-phenylacetate] | 0.88 %/day
CCC(C(=O)OCn1ccc2c(N(C)[C@H]3CN(C(=O)CC#N)CC[C@H]3C)ncnc21)c1ccc(N2Cc3ccccc3C2=O)cc1 (stereo partly drawn) [Ex. 65, (4-(((3R, 4R)-1-(2-cyanoacetyl)-4-methylpiperidin-3-yl) (methyl)amino)-7H-pyrrolo [2,3-d]pyrimidin-7-yl) methyl 2-(4-(1-oxoisoindol-2-yl)) phenyl) butanoate] | 0.01 %/day
Cc1c(Cl)cccc1Nc1ccccc1C(=O)OCn1ccc2c(N(C)[C@H]3CN(C(=O)CC#N)CC[C@H]3C)ncnc21 [Ex. 66, (4-(((3R, 4R)-1-(2-cyanoacetyl)-4-methylpiperidin-3-yl) (methyl)amino)-7H-pyrrolo [2,3-d]pyrimidin-7-yl) methyl 2-((3-chloro-2-methylphenyl)amino) benzoate] | 0.06 %/day
Cc1cccc(Nc2ccccc2C(=O)OCn2ccc3c(N(C)[C@H]4CN(C(=O)CC#N)CC[C@H]4C)ncnc32)c1C [Ex. 67, (4-(((3R, 4R)-1-(2-cyanoacetyl)-4-methylpiperidin-3-yl) (methyl)amino)-7H-pyrrolo [2,3-d]pyrimidin-7-yl) methyl 2-((2,3-dimethylphenyl)amino) benzoate] | 0.02 %/day
CNS(=O)(=O)C[C@H]1CC[C@H](N(C)c2ncnc3c2ccn3C(=O)C(C)c2cccc(Oc3ccccc3)c2)CC1 (stereo partly drawn) [Ex. 68, N-methyl-1-((trans)-4-(methyl (7-(2-(3-phenoxyphenyl)propanoyl)-7H-pyrrolo [2,3-d]pyrimidin-4-yl)amino)cyclohexyl) methanesulfonamide] | 10.6 %/day
CCS(=O)(=O)N1CC(CC#N)(n2cc(-c3ncnc4c3ccn4COC(=O)Cc3ccccc3Nc3c(Cl)cccc3Cl)cn2)C1 [Ex. 70, Methyl (4-(1-(3-(cyanomethyl)-1-(ethylsulfonyl)azetidin-3-yl)-1H-pyrazol-4-yl)-7H-pyrrolo [2,3-d]pyrimidin-7-yl) 2-(2-((2,6-dichlorophenyl)amino)phenyl) acetate] | 0.42 %/day
